# Experiments:
# Yeast V-ATPase = target: T1, Yeast V-ATPase (Saccharomyces cerevisiae, UniProt P25515+P41807); assay: Biochemical V-ATPase (ATP hydrolysis) assay
# T1 construct: V-ATPase was purified as described previously from yeast[82] using the detergent dodecylmaltoside; endogenous in cells; host or cells: yeast
# Experimental: V-ATPase was purified as described previously from yeast[82] using the detergent dodecylmaltoside and porcine kidney[83] using the detergent glycol-diosgenin. ATPase assays with purified V-ATPase were performed as described previously. 249C (mammalian: 0.1, 1, 10, 100 μM and yeast: 5, 10 and 100 μM) or BafA1 (1 μM) were added to the reaction and compared with a negative control to which only DMSO was added. Enzyme-coupled ATPase biochemical activity assays were performed in a 96-well plate as described previously. […]
# appears to cause accumulation of high molecular weight entities. Representative of 3 independent experiments. […]
# observed. Data shown are mean ± SD ( n = 3) Two-tailed student’s t-test (C) ATP-dependent fluorescence quenching in yeast (me an ± SD; n = 3 ) Two-t ailed student’s t-test (D) SDS PAGE over th e cou rse of recombinant human ATP6V1H protein purification. 1. Mark ers; 2. Total l ysate (GST-fusion […]); 3. Soluble lysate; 4.
# GSTrap flow-through; 5. GSTrap elute; 6. Post thrombin cleavage (target 54 kDa, GST 25 kDa); 7. Subtractive GSTrap flow -through; 8. Markers; 9. Final sample, 1 µg protein load. Repres entative of 2 independent ex periments. (E) Structure of biotin- 249C. […]
# interfere with V-ATPas e binding. ( F) Experimental schematic of Bio-la yer inferometr y (B L I) .
# (§1) (1 picture or pasted object on this page, not shown here)
# [1] = Plasma concentration in mice; format: in vivo; conditions: female, athymic nude (NU/NU, Charles River strain # 088), mouse, intraperitoneal, 10 mg/kg, after 4 hours, read-out: maximum concentration (Cmax) in blood (or plasma)
# Experimental: 5 × 10^6 A549 cells were subcutaneously injected into the lower left flank of 6–8-week old athymic nude female mice (Charles River strain # 088, homozygous NU/NU). To assess establishment of tumors, mice were examined 5 days post-inoculation and were randomly segregated into two treatment groups [vehicle control, 10 mg/kg 249C IP, n = 7 per group] and were treated twice daily with the drug in NPM or vehicle control (5% weight aqueous solution of carboxymethyl cellulose). Tumor volumes were calculated using the formula (L × W × H)/2 with recorded caliper measurements. Survival curves and statistical analyses were performed using Excel. Animals were maintained on a standard chow diet; 12:12 dark/light cycle and in group housing in hepa-filtered cages. All animal procedures were performed under IACUC approved protocols and guidelines. Animals from both groups were weighed every 3 days. Plasma concentration was measured from blood collected using standard and established protocols.
# DDR1 = DDR1 (Homo sapiens, UniProt Q08345); assay: KINOMEscan Kd determination; format: binding; conditions: 11-point serial dilution, top 30,000 nM
# DDR1, sequence (Q08345 19-913): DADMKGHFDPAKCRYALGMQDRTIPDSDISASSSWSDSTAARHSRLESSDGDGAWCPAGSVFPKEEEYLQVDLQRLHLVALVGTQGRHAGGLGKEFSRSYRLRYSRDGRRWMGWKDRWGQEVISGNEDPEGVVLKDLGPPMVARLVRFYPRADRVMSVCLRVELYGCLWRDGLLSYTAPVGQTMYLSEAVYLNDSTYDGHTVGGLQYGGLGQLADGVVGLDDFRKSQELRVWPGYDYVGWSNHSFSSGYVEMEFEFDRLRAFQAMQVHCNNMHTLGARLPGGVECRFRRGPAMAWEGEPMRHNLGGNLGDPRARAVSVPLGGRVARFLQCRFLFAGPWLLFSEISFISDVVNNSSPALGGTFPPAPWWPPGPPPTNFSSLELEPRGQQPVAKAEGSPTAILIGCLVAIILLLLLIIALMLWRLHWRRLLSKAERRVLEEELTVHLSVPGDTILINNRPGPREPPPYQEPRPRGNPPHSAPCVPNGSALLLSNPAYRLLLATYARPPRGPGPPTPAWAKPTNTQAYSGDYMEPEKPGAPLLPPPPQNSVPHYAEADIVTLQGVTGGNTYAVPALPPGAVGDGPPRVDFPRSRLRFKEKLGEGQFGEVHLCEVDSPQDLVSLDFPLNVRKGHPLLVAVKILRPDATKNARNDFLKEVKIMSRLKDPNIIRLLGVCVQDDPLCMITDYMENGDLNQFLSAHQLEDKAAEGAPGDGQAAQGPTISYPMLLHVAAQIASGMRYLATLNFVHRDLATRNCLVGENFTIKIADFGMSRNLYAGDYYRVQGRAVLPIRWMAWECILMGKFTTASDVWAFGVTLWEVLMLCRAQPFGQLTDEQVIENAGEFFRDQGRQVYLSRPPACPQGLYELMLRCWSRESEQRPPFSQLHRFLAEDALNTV
# Excerpt: (§2) The KINOMEscan™ Profiling Service consisting of 468 human kinases was used to assess 249C inhibitor activity to check for off-target effects as previously described.
# (§3) Supplementary Fi g u re 12: Compound 249C assessed for off-target effects using the KIN OME scanTM screening platform. (A) Selectivity (S-score) for 249C wher e the sco re is a qu antitative measu re o f compound selectivity against human kinases. It is calculate b y dividing the number of k inases that compounds bi nd to b y the total number of distinct kinases tested, excluding mutant variants (S = number of hits / number of assa ys). 1 hit out of >400 kinases is reported for test compound (249C) = 0.002. S(35) = number of non- mutant kinases with % ctrl <35/number of non- mutant kinases; (B) Kinome interaction map for 249C at 10,000 nM. Each red dot indicates a kinase found to bind, where larger dots indicate higher affinit y interactions.
# (§4) 1 Tyrosine Kinase (TK) out of >400 kinases ( created in TREEspotTM ) with low affinity. This is calculated using
# (§5) Dissociation constants (Kds) were determined using 249C at 30,000 nM, Hill slopes were set to - 1 and curves were fitted using a non- linear least square fit with the […]
# as §1
# DDR2 = DDR2 (Homo sapiens, UniProt Q16832); assay: KINOMEscan Kd determination; format: binding; conditions: 11-point serial dilution, top 30,000 nM
# DDR2, sequence (Q16832 22-855): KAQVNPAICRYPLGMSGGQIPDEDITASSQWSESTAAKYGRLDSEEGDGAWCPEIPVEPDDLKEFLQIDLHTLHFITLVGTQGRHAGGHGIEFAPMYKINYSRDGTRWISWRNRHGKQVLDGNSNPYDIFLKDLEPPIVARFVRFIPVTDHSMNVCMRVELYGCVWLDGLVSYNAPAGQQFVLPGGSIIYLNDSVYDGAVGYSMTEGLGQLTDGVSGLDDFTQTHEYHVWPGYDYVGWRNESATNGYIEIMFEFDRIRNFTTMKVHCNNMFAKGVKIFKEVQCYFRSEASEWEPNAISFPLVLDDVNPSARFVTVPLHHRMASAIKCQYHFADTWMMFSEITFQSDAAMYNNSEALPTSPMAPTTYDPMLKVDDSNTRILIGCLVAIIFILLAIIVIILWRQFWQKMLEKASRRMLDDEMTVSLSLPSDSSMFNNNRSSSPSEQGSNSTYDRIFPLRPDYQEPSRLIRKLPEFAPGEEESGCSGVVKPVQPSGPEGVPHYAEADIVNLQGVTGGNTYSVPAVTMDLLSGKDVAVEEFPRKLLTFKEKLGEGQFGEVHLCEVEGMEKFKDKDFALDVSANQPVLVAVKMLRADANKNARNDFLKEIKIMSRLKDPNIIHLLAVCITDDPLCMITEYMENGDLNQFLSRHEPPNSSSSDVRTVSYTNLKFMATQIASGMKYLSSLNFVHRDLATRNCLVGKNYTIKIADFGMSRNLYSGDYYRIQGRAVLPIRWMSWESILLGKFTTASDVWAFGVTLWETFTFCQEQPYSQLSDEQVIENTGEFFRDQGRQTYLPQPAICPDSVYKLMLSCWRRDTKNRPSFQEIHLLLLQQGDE
# Excerpt: as §2, §3, §4, §5, §1
# MEFs KRAS Q61L = assay: Cell proliferation of Ras-less MEFs expressing human KRAS/BRAF; conditions: Mus musculus
# MEFs KRAS G12C = assay: as above; conditions: Mus musculus
# T1 sequence (P25515 whole entry): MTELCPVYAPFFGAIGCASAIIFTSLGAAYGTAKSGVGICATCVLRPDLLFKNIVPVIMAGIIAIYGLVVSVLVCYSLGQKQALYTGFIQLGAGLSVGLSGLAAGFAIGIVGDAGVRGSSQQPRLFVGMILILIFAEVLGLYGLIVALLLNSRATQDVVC
# T1 sequence (P41807 2-478): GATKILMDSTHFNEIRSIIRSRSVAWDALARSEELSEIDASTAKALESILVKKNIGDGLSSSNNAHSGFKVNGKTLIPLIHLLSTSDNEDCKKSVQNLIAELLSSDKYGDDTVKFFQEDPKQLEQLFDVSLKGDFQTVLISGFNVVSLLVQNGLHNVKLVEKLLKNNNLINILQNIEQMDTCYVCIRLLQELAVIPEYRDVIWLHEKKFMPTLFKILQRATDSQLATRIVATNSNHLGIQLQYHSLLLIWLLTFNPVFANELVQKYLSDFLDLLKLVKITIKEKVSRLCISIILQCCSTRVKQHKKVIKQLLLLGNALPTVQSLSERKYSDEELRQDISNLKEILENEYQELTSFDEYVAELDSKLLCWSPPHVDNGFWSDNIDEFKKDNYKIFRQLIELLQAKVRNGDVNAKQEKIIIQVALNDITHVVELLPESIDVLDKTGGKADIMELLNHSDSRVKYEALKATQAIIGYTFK
smiles,measurement,setting,value
CN1CCOC(CNC(=O)C2(C)C(c3ccc(Cl)o3)C(c3ccc(F)cc3F)=NN2c2ccc(F)cc2F)C1 (stereo not drawn) [Compound 249C],Yeast V-ATPase activity,Yeast V-ATPase,modest inhibition
same,Cmax,[1],20 µM
same,Kd,DDR1,5.4 µM
same,Kd,DDR2,16 µM
same,IC50,MEFs KRAS Q61L,0.31 µM
same,IC50,MEFs KRAS G12C,0.44 µM

# Reference: publication PMC9750872, “Ras-mutant cancers are sensitive to small molecule inhibition of V-type ATPases in mice” (Nature biotechnology, 2022)
